Organism: Rattus norvegicus
Experiment: Open TG-GATES - Regimen: Single
Assay type: toxicity, organism-based, Sprague-Dawley
Design: regimen Single, gender Male, age 6 weeks
Conditions: in vivo, po, 0 mg/kg, route gavage, dose level Control; for APTT / Bas / Eos / Fbg / Hb / Ht / Lym / MCH / MCHC / MCV / Mono / Neu / PT / Plat / RBC / Ret / WBC: tissue Blood; for KIDNEY_L / KIDNEY_R / KIDNEY_TOTAL: tissue Kidney; for LIVER: tissue Liver; for A/G / ALP / ALT / AST / BUN / CRE / Ca / Cl / DBIL / GLC / IP / K / LDH / Na / PL / RALB / TBIL / TC / TG / TP / gamma-GTP: tissue Plasma

Work on `O=C(OC[C@H]1O[C@@H](OC(=O)c2cc(O)c(O)c(OC(=O)c3cc(O)c(O)c(O)c3)c2)[C@H](OC(=O)c2cc(O)c(O)c(OC(=O)c3cc(O)c(O)c(O)c3)c2)[C@@H](OC(=O)c2cc(O)c(O)c(OC(=O)c3cc(O)c(O)c(O)c3)c2)[C@@H]1OC(=O)c1cc(O)c(O)c(OC(=O)c2cc(O)c(O)c(O)c2)c1)c1cc(O)c(O)c(OC(=O)c2cc(O)c(O)c(O)c2)c1` [TANNIC ACID] yielded a TERMINAL_BW (3 h) of 189.9 g, an APTT (3 h) of 16.1 s and a Bas (3 h) of 0%. It also gave an Eos (3 h) of 0.6%, a Fbg (3 h) of 216.2 mg/dL and a Hb (3 h) of 12.9 g/dL. It also gave a Ht (3 h) of 38.5%, a Lym (3 h) of 79.4% and an MCH (3 h) of 22.6 pg. The MCHC (3 h) was 33.6%, the MCV (3 h) was 67.3 fL and the Mono (3 h) was 5%. It also gave a Neu (3 h) of 15.2%, a PT (3 h) of 11.7 s and a Plat (3 h) of 106.7 x10_4/uL. The RBC (3 h) was 573 x10_4/ul, the Ret (3 h) was 10.3% and the WBC (3 h) was 111 x10_2/uL. For the same molecule, the KIDNEY_L (3 h) was 0.9 g, the KIDNEY_R (3 h) was 0.9 g and the KIDNEY_TOTAL (3 h) was 1.8 g. The LIVER (3 h) was 9.5 g, the A/G (3 h) was 2.1 and the ALP (3 h) was 747.6 IU/L. For the same molecule, the ALT (3 h) was 34.4 IU/L, the AST (3 h) was 68 IU/L and the BUN (3 h) was 17 mg/dL. It also gave a CRE (3 h) of 0.4 mg/dL, a Ca (3 h) of 11 mg/dL and a Cl (3 h) of 103.2 meq/L. It also gave a DBIL (3 h) of 0.016 mg/dL, a GLC (3 h) of 194.4 mg/dL and an IP (3 h) of 10.3 mg/dL. For the same molecule, the K (3 h) was 4.8 meq/L, the LDH (3 h) was 74.4 IU/L and the Na (3 h) was 139.4 meq/L. It also gave a PL (3 h) of 141.4 mg/dL, an RALB (3 h) of 3.6 g/dL and a TBIL (3 h) of 0.5 mg/dL. The TC (3 h) was 74.8 mg/dL, the TG (3 h) was 70.6 mg/dL and the TP (3 h) was 5.4 g/dL. It also gave a gamma-GTP (3 h) of 1.4 IU/L, a TERMINAL_BW (6 h) of 186.3 g and an APTT (6 h) of 15.9 s. The Bas (6 h) was 0%, the Eos (6 h) was 0.8% and the Fbg (6 h) was 227 mg/dL. The Hb (6 h) was 13.1 g/dL, the Ht (6 h) was 39.1% and the Lym (6 h) was 75.2%. It also gave an MCH (6 h) of 22.1 pg, an MCHC (6 h) of 33.6% and an MCV (6 h) of 65.6 fL. For the same molecule, the Mono (6 h) was 7.8%, the Neu (6 h) was 16.4% and the PT (6 h) was 12.1 s. It also gave a Plat (6 h) of 117.4 x10_4/uL, an RBC (6 h) of 596 x10_4/ul and a Ret (6 h) of 10.1%. It also gave a WBC (6 h) of 109.6 x10_2/uL, a KIDNEY_L (6 h) of 0.9 g and a KIDNEY_R (6 h) of 0.9 g. The KIDNEY_TOTAL (6 h) was 1.8 g, the LIVER (6 h) was 8.6 g and the A/G (6 h) was 2. For the same molecule, the ALP (6 h) was 831.4 IU/L, the ALT (6 h) was 34.4 IU/L and the AST (6 h) was 61.8 IU/L. For the same molecule, the BUN (6 h) was 11.2 mg/dL, the CRE (6 h) was 0.5 mg/dL and the Ca (6 h) was 10.8 mg/dL. The Cl (6 h) was 105.2 meq/L, the DBIL (6 h) was 0.028 mg/dL and the GLC (6 h) was 188 mg/dL. For the same molecule, the IP (6 h) was 10.1 mg/dL, the K (6 h) was 4.7 meq/L and the LDH (6 h) was 83 IU/L. For the same molecule, the Na (6 h) was 139.4 meq/L, the PL (6 h) was 131.8 mg/dL and the RALB (6 h) was 3.6 g/dL. It also gave a TBIL (6 h) of 0.4 mg/dL, a TC (6 h) of 79.2 mg/dL and a TG (6 h) of 40.6 mg/dL. For the same molecule, the TP (6 h) was 5.4 g/dL, the gamma-GTP (6 h) was 2.2 IU/L and the TERMINAL_BW (9 h) was 184.6 g. For the same molecule, the APTT (9 h) was 16.7 s, the Bas (9 h) was 0% and the Eos (9 h) was 1.2%. It also gave a Fbg (9 h) of 213 mg/dL, a Hb (9 h) of 12.9 g/dL and a Ht (9 h) of 38.4%. It also gave a Lym (9 h) of 76.8%, an MCH (9 h) of 22.2 pg and an MCHC (9 h) of 33.6%. The MCV (9 h) was 65.9 fL, the Mono (9 h) was 8% and the Neu (9 h) was 14.4%. The PT (9 h) was 12.1 s, the Plat (9 h) was 123.3 x10_4/uL and the RBC (9 h) was 583.4 x10_4/ul. It also gave a Ret (9 h) of 10.2%, a WBC (9 h) of 92.1 x10_2/uL and a KIDNEY_L (9 h) of 0.9 g. For the same molecule, the KIDNEY_R (9 h) was 0.9 g, the KIDNEY_TOTAL (9 h) was 1.7 g and the LIVER (9 h) was 7.7 g. It also gave an A/G (9 h) of 1.9, an ALP (9 h) of 669.8 IU/L and an ALT (9 h) of 34.4 IU/L. The AST (9 h) was 60 IU/L, the BUN (9 h) was 12.8 mg/dL and the CRE (9 h) was 0.4 mg/dL. For the same molecule, the Ca (9 h) was 10.5 mg/dL, the Cl (9 h) was 105.4 meq/L and the DBIL (9 h) was 0.062 mg/dL. It also gave a GLC (9 h) of 195.8 mg/dL, an IP (9 h) of 10.8 mg/dL and a K (9 h) of 4.9 meq/L. For the same molecule, the LDH (9 h) was 72.2 IU/L, the Na (9 h) was 137 meq/L and the PL (9 h) was 138.6 mg/dL. The RALB (9 h) was 3.6 g/dL, the TBIL (9 h) was 0.4 mg/dL and the TC (9 h) was 81.4 mg/dL. The TG (9 h) was 35.2 mg/dL, the TP (9 h) was 5.5 g/dL and the gamma-GTP (9 h) was 2.6 IU/L. For the same molecule, the TERMINAL_BW (24 h) was 197.9 g, the APTT (24 h) was 16.7 s and the Bas (24 h) was 0%. It also gave an Eos (24 h) of 1.2%, a Fbg (24 h) of 218.4 mg/dL and a Hb (24 h) of 12.5 g/dL. It also gave a Ht (24 h) of 37.6%, a Lym (24 h) of 79.6% and an MCH (24 h) of 22 pg. It also gave an MCHC (24 h) of 33.3%, an MCV (24 h) of 66.1 fL and a Mono (24 h) of 6%. For the same molecule, the Neu (24 h) was 13.6%, the PT (24 h) was 11.8 s and the Plat (24 h) was 110.9 x10_4/uL. The RBC (24 h) was 568.6 x10_4/ul, the Ret (24 h) was 9.9% and the WBC (24 h) was 98.7 x10_2/uL. For the same molecule, the KIDNEY_L (24 h) was 0.9 g, the KIDNEY_R (24 h) was 0.9 g and the KIDNEY_TOTAL (24 h) was 1.8 g. The LIVER (24 h) was 9.4 g, the A/G (24 h) was 2.1 and the ALP (24 h) was 821.8 IU/L. For the same molecule, the ALT (24 h) was 41 IU/L, the AST (24 h) was 66.6 IU/L and the BUN (24 h) was 18.2 mg/dL. The CRE (24 h) was 0.5 mg/dL, the Ca (24 h) was 10.8 mg/dL and the Cl (24 h) was 103.8 meq/L. For the same molecule, the DBIL (24 h) was 0.004 mg/dL, the GLC (24 h) was 190.6 mg/dL and the IP (24 h) was 8.7 mg/dL. The K (24 h) was 4.7 meq/L, the LDH (24 h) was 97 IU/L and the Na (24 h) was 138.2 meq/L. It also gave a PL (24 h) of 144.2 mg/dL, an RALB (24 h) of 3.7 g/dL and a TBIL (24 h) of 0.4 mg/dL. For the same molecule, the TC (24 h) was 80.6 mg/dL, the TG (24 h) was 77.2 mg/dL and the TP (24 h) was 5.5 g/dL. It also gave a gamma-GTP (24 h) of 1.4 IU/L.
